In patent US11090292B2, “Compositions and methods of use of an inappetance-controlling compound” (Aratana Therapeutics, Inc., priority 2012, dated 2021):
Like-named read-outs stand apart in the source and are kept apart here.

How the values were obtained:
[1] = Example 12 cat probe formulation study and pharmacokinetic analysis; assay type: in vivo, cats; details: for peak in serum concentration of capromorelin / time post administration of peak serum concentration: Day 0
Method: Similar to some of the other pharmacokinetic analyses conducted in dogs and cats, an additional pharmacokinetic study was conducted in cats to assess capromorelin formulations that allow sufficient drug to circulate to produce appetite stimulation and to define the capromorelin pharmacokinetic profile in cats. Briefly, twelve cats were randomized into Group 1 (six cats) and Group 2 (six cats). Group 1 received an intravenous formulation that included 0.75 mg/kg of capromorelin dissolved in sterile water and Group 2 received a previously tested formulation via oral gavage. Food consumption was determined daily for all cats. Specifically, animals were offered feed at approximately 11:00 AM, with the removal of feed at approximately 3:00 PM. Upon removal of feed, the amount consumed was calculated. […] Initially, the cats were given a seven day acclimation period to adjust to the experimental conditions and feed provided. After the acclimation period, on Day 0, all animals in Group 1 received an intravenous injection of the composition containing a dose of 0.75 mg/kg of capromorelin. On Day 0, the animals in Group 2 received an oral administration of the formulation via gavage at a dose of 3 mg/kg of capromorelin. On Day 0, serum samples were taken from the Group 1 animals at time 0 (pre-administration) and 5 minutes, 10 minutes, 30 minutes, 1 h, 2 h, 4 h, 6 h, 8 h, and 12 h post administration and serum samples were also taken from the Group 2 animals at time 0 (per-administration) and 15 minutes, 30 minutes, 45 minutes, 1 h, 2 h, 4 h, 6 h, 8 h, and 12 h post administration.

[2] = Example 13 cat compromised kidney study: body weight and diet consumption; assay type: in vivo, cats with compromised kidney function; details: subcutaneous 2 mg/kg daily for 14 days
Method: The following study was undertaken to assess multiple points. First, the following experiments were conducted to determine if a formulation of capromorelin, when administered either intravenously or subcutaneously, can stimulate appetite in cats with compromised kidney function. Second, the following experiments were conducted to assess the pharmacokinetic profile of capromorelin in the serum of cats with compromised kidney function. Finally, the following experiments were conducted to determine if capromorelin accumulates in the serum after 14 days of treatment that is subcutaneously administered.
Sixteen cats with compromised kidney function were acclimatized for the following study. Animals assigned to Group 1 (n=6) received an intravenous administration of a capromorelin formulation (i.e., capromorelin in sterile water) at a dose of 0.75 mg/kg on Day 0 of the experiment. Animals assigned to Group 2 (n=6) received a subcutaneous administration of a capromorelin formulation (2.1% w/v capromorelin, 1% w/v benzyl alcohol, and citrate buffer) daily for 14 days at a dose of 2 mg/kg. Animals assigned to Group 3 (n=4) served as untreated controls. […] Diet consumption was also monitored on study days −7 until day 13 for the animals in Groups 2 and 3 only.

GH = assay: Example 4: serum GH concentration; assay type: in vivo, Beagle dogs; details: once-daily or twice-daily 3 mg/kg, approximately 0.5 h, days 1, 4, 7
Method: A controlled, seven-day study was performed to assess the impact of different capromorelin-dosing regimens on the production of IGF-1, GH, and cortisol. The different capromorelin-dosing regimens were also assessed for the impact on food intake and changes in body mass.
[…] were divided into one of three treatment groups, with one negative control group and two active treatment groups. Each of the three treatment groups included three males and three females. The first group received a placebo formulation (i.e., deionized water) twice per day, via oral gavage. The second group received a once-daily dose of the capromorelin composition at a concentration of 3 mg/kg, via oral gavage. The third group received a twice-daily dose of the capromorelin composition at a concentration of 3 mg/kg, via oral gavage.
During the ten day study period, on an at least once-daily basis, each of the dogs was monitored for clinical observations, mortality, moribundity, body mass, acceptability/palatability, and food consumption. Serum samples were taken to measure capromorelin concentration, GH concentration, IGF-1 concentration, and cortisol concentration. Serum samples were taken on days 1, 2, 4, and 7 at −15 minutes (pre-dose), immediately prior to dosing (0 minutes) and 30, 45, 60, 90, 120, 240, 360, and/or 480 minutes post dosing. […]

growth hormone (GH) = assay: Example 1: serum GH concentration; assay type: in vivo, Beagle dogs; details: once-daily 6 mg/kg or twice-daily 3 mg/kg, approximately 0.5 h after dosing, days 1, 2, 4, 7
Method: A controlled, seven-day study was performed to assess the impact of different capromorelin-dosing regimens on the production of insulin-like growth factor 1 (hereinafter “IGF-1”), growth hormone (hereinafter “GH”), and cortisol. The different capromorelin-dosing regimens were also assessed for the impact on food intake and changes in body mass.
Eighteen adult non-naïve Beagle dogs (nine males and nine females) were divided into one of three treatment groups. Each of the three treatment groups included three males and three females. Group A, which was the control group, was dosed twice per day, via oral gavage, with a vehicle (deionized water alone) and was used as a baseline data point for comparison against the active treatment regimens. Group B comprised an active treatment group that received two treatments per day, via oral gavage, with a capromorelin-containing composition with a concentration of 3 mg/kg capromorelin per treatment. Finally, Group C comprised an active treatment group that received one treatment per day, via oral gavage, with a capromorelin-containing composition with a concentration of 6 mg/kg capromorelin per treatment.
During the ten day study period, on an at least once-daily basis, each of the dogs was monitored for clinical observations, mortality, morbidity, body mass, and food consumption. […]

[3] = Group 1, intravenous 0.75 mg/kg

CN1N=C2CCN(C(=O)[C@@H](COCc3ccccc3)NC(=O)C(C)(C)N)C[C@@]2(Cc2ccccc2)C1=O.O=C(O)C(O)C(O)C(=O)O [capromorelin]
peak in serum concentration of capromorelin [1, 3]: around 625 ng/mL | time post administration of peak serum concentration [1, 3]: around 5 minutes | peak in serum concentration of capromorelin ([1]; Group 2, oral gavage 3 mg/kg): around 150 ng/mL | time post administration of peak serum concentration ([1]; Group 2, oral gavage 3 mg/kg): around 2 hours | clearance ([1]; cat, serum, Group 1, intravenous 0.75 mg/kg, read-out: clearance of capromorelin): ~30 mL/min/kg | half-life ([1]; cat, serum, Group 1, intravenous 0.75 mg/kg, read-out: terminal half-life of capromorelin (converted)): ~54 min | Cmax ([1]; cat, serum, Group 2, oral gavage 3 mg/kg): 149 ng/mL | half-life ([1]; cat, serum, Group 2, oral gavage 3 mg/kg, read-out: mean-terminal half-life (converted)): 62.4 min | amount of food consumed, Group 2 versus untreated Group 3 [2]: no significant difference | body weights of Group 2 versus untreated Group 3 [2]: no significant differences | GH levels in the serum after dosing (GH): marked increase | GH levels in the serum after dosing (growth hormone (GH)): marked increase
